Results: patent publication US20250206780A1, “CYCLIC PEPTIDES AND THEIR USE FOR THE TREATMENT OF DISEASES ASSOCIATED WITH DICARBONYLS LIKE METHYLGLYOXAL” (UNIVERSITÄT HEIDELBERG, priority 2022, published 2025)
Starred links: 1 amine or outer side, 2 acyl side, 3 side chain; linkers in the order of their positions; H or OH if unused. Positions of bridges follow the written chain, without caps; N, C: chain ends. Residues, ends and D or L forms follow the SMILES beside them. Groups on a side chain read outwards from the residue. *: point of attachment. d(γGlu) = O=C(O)[C@@H](CCC(=O)[*:2])N[*:1]; C16 diacid = O=C(O)CCCCCCCCCCCCCCC(=O)*; Dap = NC[C@H](N)C(=O)O

Legend:
[1] = parameters: species or system mice; settings: mouse, in vivo
Procedure: Animals were injected with Dap3 and blood was collected into EDTA containing tubes at indicated time points with n=3 per time point. After centrifugation EDTA plasma was stored at −80° C. until analysis. Dap3 was quantified by LC MS/MS as described in section 6.
6. Detection of Dap3 and MG-Modified Dap3 by LC-MS/MS A Dap3-MG standard was prepared by incubation of Dap3 with methylglyoxal in 0.1 M phosphate buffer followed by purification by preparative HPLC. The peptide CycK(e-Hdd)R4E was employed as internal standard which was added to the standard curve and plasma samples prior to precipitation. Prior to analysis 2 parts acetonitrile were added to the plasma, vortexed and centrifuged for 10 min at 13,000 g. The supernatant was analysed using an ACQUITY UPLC I fitted with a Acquity UPLC BEH C18 column (Waters, 2.1 mm*100 mm, […]) with a pre-column (2.1×5 mm, 1.7 μm) and a Xevo TQ-XS mass spectrometer (Waters, USA). Solvent A was water+0.1% formic acid and solvent B was acetonitrile+0.1% formic acid. A linear gradient from 0-100% solvent B at a flow rate of 0.2 ml/min over 20 min and a column temperature of 30° C. was used. The detailed parameters for the quantification of Dap3, Dap3-MG and CycK(e-Hdd)R4E, are described below

[2] = Bowman et al., 1996; cited from earlier work

| Structure (SMILES) | plasma half-life [1] | half-life [2] |
| --- | --- | --- |
| NC[C@H](N)C(=O)NCCCC[C@@H]1NC(=O)[C@H](CCCCNC(=O)[C@@H](N)CN)NC(=O)[C@H](CCC(=O)O)NC(=O)[C@H](CCCCNC(=O)[C@@H](N)CN)NC(=O)[C@H](CCCCNC(=O)CC[C@@H](NC(=O)CCCCCCCCCCCCCCC(=O)O)C(=O)O)NC(=O)CC[C@@H](C(=O)O)NC1=O [Dap3] (K([d(γGlu)-C16 diacid])K(Dap)EK(Dap)K(Dap)E-OH; lactam N-6) | long plasma half-life | – |
| N=C(N)NN [Aminoguanidine] | – | very short |
